24 molecules from ChEMBL document CHEMBL1145374, “Discovery of para-alkylthiophenoxyacetic acids as a novel series of potent and selective PPARdelta agonists” (Bioorg Med Chem Lett, 2007) can be followed below.

For data set [1], the target named is T1, Peroxisome proliferator-activated receptor gamma (Homo sapiens, UniProt P37231).
T1 sequence (P37231 whole entry): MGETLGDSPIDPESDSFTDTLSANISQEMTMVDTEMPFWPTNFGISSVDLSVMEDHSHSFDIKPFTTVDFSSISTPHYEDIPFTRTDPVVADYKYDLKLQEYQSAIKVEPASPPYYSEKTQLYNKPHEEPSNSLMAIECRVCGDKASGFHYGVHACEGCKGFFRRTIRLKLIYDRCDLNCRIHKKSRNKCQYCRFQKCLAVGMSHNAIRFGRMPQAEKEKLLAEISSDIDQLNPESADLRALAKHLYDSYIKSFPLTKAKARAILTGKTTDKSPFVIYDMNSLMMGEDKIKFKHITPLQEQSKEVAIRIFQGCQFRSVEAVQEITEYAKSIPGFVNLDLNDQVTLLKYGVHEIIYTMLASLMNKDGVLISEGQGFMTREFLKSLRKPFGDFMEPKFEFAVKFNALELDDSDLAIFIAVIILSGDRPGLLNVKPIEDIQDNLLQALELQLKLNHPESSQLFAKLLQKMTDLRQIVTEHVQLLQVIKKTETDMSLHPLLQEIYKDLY
In words: Activity at human PPARgamma receptor by cell based transactivation assay.

For data set [2], the target named is T2, Peroxisome proliferator-activated receptor alpha (Homo sapiens, UniProt Q07869).
T2 sequence (Q07869 whole entry): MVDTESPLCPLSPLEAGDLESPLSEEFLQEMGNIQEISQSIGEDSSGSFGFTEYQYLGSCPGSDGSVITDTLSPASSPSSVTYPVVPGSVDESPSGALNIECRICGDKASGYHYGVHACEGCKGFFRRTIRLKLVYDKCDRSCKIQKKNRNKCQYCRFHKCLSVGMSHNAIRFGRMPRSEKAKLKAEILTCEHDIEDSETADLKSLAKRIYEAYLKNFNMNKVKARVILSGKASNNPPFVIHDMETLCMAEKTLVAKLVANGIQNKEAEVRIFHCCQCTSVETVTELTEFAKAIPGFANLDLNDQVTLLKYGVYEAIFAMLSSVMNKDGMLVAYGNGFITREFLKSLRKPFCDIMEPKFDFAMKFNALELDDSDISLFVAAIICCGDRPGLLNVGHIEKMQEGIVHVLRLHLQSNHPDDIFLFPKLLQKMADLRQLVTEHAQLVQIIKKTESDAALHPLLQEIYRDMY
In words: Activity at human PPARalpha receptor by cell based transactivation assay.

The target of data set [3] is T3, Peroxisome proliferator-activated receptor delta (Homo sapiens, UniProt Q03181).
T3 sequence (Q03181 whole entry): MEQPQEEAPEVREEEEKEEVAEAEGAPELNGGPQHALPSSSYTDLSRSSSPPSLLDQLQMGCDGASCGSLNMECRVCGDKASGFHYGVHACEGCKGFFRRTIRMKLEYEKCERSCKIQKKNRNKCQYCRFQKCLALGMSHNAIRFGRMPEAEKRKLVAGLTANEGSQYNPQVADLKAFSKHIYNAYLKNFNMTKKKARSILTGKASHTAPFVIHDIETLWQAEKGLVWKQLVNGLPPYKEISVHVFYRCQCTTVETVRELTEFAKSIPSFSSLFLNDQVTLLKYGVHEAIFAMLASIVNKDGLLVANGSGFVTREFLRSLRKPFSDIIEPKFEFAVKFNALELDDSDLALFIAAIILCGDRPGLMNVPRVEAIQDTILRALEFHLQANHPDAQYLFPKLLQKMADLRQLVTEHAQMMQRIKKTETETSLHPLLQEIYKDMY
The data set is described as follows: Agonist activity at human PPARdelta receptor by cell based transactivation assay. The class given is functional.

Data set [4] can be described thus: Oral bioavailability in rat. The class given is ADME, organism-based. Conditions: in vivo.
Data set [5] can be described thus: Cmax in rat. Conditions: in vivo. Type of data set: ADME, organism-based.
Data set [6] can be described thus: Tmax in rat. Type of data set: ADME, organism-based. The following applies: in vivo.
A short description of data set [7]: AUC in rat. Conditions: plasma. Type of data set: ADME, organism-based.
Data set [8] in a line: Half life in rat. Conditions: in vivo. Type of data set: ADME, organism-based.

Consider `Cc1cc(SCC(COc2ccc(C(F)(F)F)cc2)COc2ccc(C(F)(F)F)cc2)ccc1OCC(=O)O`, for which the EC50 in data set [1] and in data set [2] was more than 1000 nM each time.
On to `COC(COc1ccc(C(F)(F)F)cc1)CSc1ccc(OCC(=O)O)c(C)c1` (stereo not given), for which the EC50 in data set [1] is more than 1000 nM; in data set [2], more than 1000 nM; in data set [3] it was 18.8 nM.
Turning to `CCCCOC(COc1ccc(C(F)(F)F)cc1)CSc1ccc(OCC(=O)O)c(C)c1` (stereo not given), the EC50 in data set [1] was more than 1000 nM; in data set [2], more than 1000 nM; in data set [3], 7 nM.
With `CCOC(COc1ccc(C(F)(F)F)cc1)COc1ccc(OCC(=O)O)c(C)c1` (stereo not given), the EC50 in data set [1] and in data set [2] was more than 1000 nM each time.
As to `COCOC(COc1ccc(C(F)(F)F)cc1)CSc1ccc(OCC(=O)O)c(C)c1` (stereo not given), the EC50 in data set [1] and in data set [2] was more than 1000 nM throughout.
Take `CCOC(COc1ccc(C(F)(F)F)cc1)CSc1ccc(OCC(=O)O)c(C)c1` (stereo not given): the EC50 in data set [1] is more than 1000 nM; in data set [2], more than 1000 nM; in data set [3], 3.4 nM.
As for `Cc1cc(SCC(C)COc2ccc(C(F)(F)F)cc2)ccc1OCC(=O)O` (stereo not given), the results for the EC50 in data set [1], in data set [2] and in data set [3] were more than 1000 nM, more than 1000 nM and 7.4 nM, respectively.
Regarding `COc1ccc(OC(COc2ccc(C(F)(F)F)cc2)CSc2ccc(OCC(=O)O)c(C)c2)cc1` (stereo not given), the EC50 in data set [1] and in data set [2] was more than 1000 nM each time.
With `Cc1cc(SCC(O)COc2ccc(C(F)(F)F)cc2)ccc1OCC(=O)O` (stereo not given), the EC50 in data set [1] and in data set [2] was more than 1000 nM throughout.
For the molecule `CSCOC(CCc1ccc(C(F)(F)F)cc1)CSc1ccc(OCC(=O)O)c(C)c1` (stereo not given), the results for the EC50 in data set [1], in data set [2] and in data set [3] were more than 1000 nM, more than 1000 nM and 15.2 nM, respectively.
On to `COCO[C@@H](COc1ccc(C(F)(F)F)cc1)CSc1ccc(OCC(=O)O)c(C)c1`, for which the results for the EC50 in data set [1], in data set [2] and in data set [3] were more than 1000 nM, more than 1000 nM and 70 nM, respectively.
As to `CCO[C@@H](COc1ccc(C(F)(F)F)cc1)CSc1ccc(OCC(=O)O)c(C)c1`, the EC50 in data set [1] is more than 1000 nM; in data set [2] it was more than 1000 nM; in data set [3] it was 25 nM.
On to `C=CCOC(COc1ccc(C(F)(F)F)cc1)CSc1ccc(OCC(=O)O)c(C)c1` (stereo not given), for which the EC50 in data set [1] is more than 1000 nM; in data set [2] it was more than 1000 nM; in data set [3] it was 3.9 nM.
On to `CCO[C@H](COc1ccc(C(F)(F)F)cc1)C[S+]([O-])c1ccc(OCC(=O)O)c(C)c1` (stereo not given in full), for which the EC50 in data set [1] is more than 1000 nM; in data set [2], more than 1000 nM; in data set [3] it was more than 3000 nM.
Regarding `CCOC(CCc1ccc(C(F)(F)F)cc1)CSc1ccc(OCC(=O)O)c(C)c1` (stereo not given), the EC50 in data set [1] and in data set [2] was more than 1000 nM throughout.
Take `CCCC(=O)c1ccc(OC(COc2ccc(C(F)(F)F)cc2)CSc2ccc(OCC(=O)O)c(C)c2)cc1` (stereo not given): the EC50 in data set [1] and in data set [2] was more than 1000 nM each time.
Regarding `CC[C@H](COc1ccc(C(F)(F)F)cc1)CSc1ccc(OCC(=O)O)c(C)c1`, the EC50 is more than 1000 nM in data set [1], more than 1000 nM in data set [2] and 0.03 nM in data set [3]. The molecule also came in with a bioavailability in data set [4] of 84%. This molecule also returned a Cmax in data set [5] of 8870 ng/mL. In data set [6], the Tmax came out at 0.5 h. The AUC in data set [7] was 13600 ng·h/mL. The molecule further showed a half-life in data set [8] of 8.2 h.
`CCC(COc1ccc(C(F)(F)F)cc1)CSc1ccc(OCC(=O)O)c(C)c1` (stereo not given): the EC50 in data set [1] is more than 1000 nM; in data set [2] it was more than 1000 nM; in data set [3], 0.06 nM.
As for `CCOCC(COc1ccc(C(F)(F)F)cc1)CSc1ccc(OCC(=O)O)c(C)c1` (stereo not given), the EC50 in data set [1] and in data set [2] was more than 1000 nM throughout.
As to `Cc1cc(SCC(COc2ccc(C(F)(F)F)cc2)OCC(=O)O)ccc1OCC(=O)O` (stereo not given), the EC50 in data set [1] and in data set [2] was more than 1000 nM throughout.
As to `CCCOC(COc1ccc(C(F)(F)F)cc1)CSc1ccc(OCC(=O)O)c(C)c1` (stereo not given), the EC50 in data set [1] and in data set [2] was more than 1000 nM in each case.
`CCO[C@H](COc1ccc(C(F)(F)F)cc1)CSc1ccc(OCC(=O)O)c(C)c1`: the EC50 was more than 1000 nM in data set [1], more than 1000 nM in data set [2] and 1.9 nM in data set [3].
On to `COCO[C@H](COc1ccc(C(F)(F)F)cc1)CSc1ccc(OCC(=O)O)c(C)c1`, for which the EC50 in data set [1] and in data set [2] was more than 1000 nM each time.
`Cc1cc(SCC(COc2ccc(C(F)(F)F)cc2)OCc2ccccc2)ccc1OCC(=O)O` (stereo not given): the EC50 in data set [1] and in data set [2] was more than 1000 nM throughout.
